The values below come from article PMC3077032 (Clinical cancer research : an official journal of the …, 2011).

The structures appear in SMILES notation. Like-named read-outs stand apart in the source and are kept apart here.

The conditions of series [1]: in vivo.
The nature of a further series: clinical. As to conditions: human, plasma (sorafenib); sample for sirolimus not named, oral.
The conditions of series [2]: cited from earlier work.
The conditions of series [3]: for AUC, median relative difference (range) after initiation of combination therapy / Cmax, median relative difference (range) after initiation of combination therapy: combination with the interacting drug vs drug alone, n=6; for Ka, population estimate: one-compartment NONMEM model, n = 6 per drug.
For series [4] the following is noted: day 28 combination vs day 14 alone.
The test system of a further series is CYP3A4. The settings on record: cited from earlier work.
Where [5] appears, read: daily oral dosing, phase I trial in cancer patients.

Turning to `CCNCCNC(=O)c1c(C)[nH]c(/C=C2\C(=O)Nc3ccc(F)cc32)c1C` [SU12662], in series [1], the “AUC, median relative difference (range) after initiation of combination therapy” value (“AUC, median relative difference (range)” for short) is 61.6 (−79.7, 1031.2) %.

One may read the Vd/F as the apparent distribution volume after extravascular dosing. `CO[C@H]1C[C@@H]2CC[C@@H](C)[C@@](O)(O2)C(=O)C(=O)N2CCCC[C@H]2C(=O)O[C@H]([C@H](C)C[C@@H]2CC[C@@H](O)[C@H](OC)C2)CC(=O)[C@H](C)/C=C(\C)[C@@H](O)[C@@H](OC)C(=O)[C@H](C)C[C@H](C)/C=C/C=C/C=C/1C` [sirolimus, Sirolimus] came in with a Vd/F in the series “clinical” of 138 L. Also, in series [2] (setting [5]), the Dose well tolerated is reported as 3 mg and the Maximum tolerated dose is on record as 6 mg. For the same compound, the “Dose administered without dose limiting toxicity” value in series [2] (weekly dosing, ongoing study at the University of Chicago) is 90 mg. In series [3], the “AUC, median relative difference (range)” value is reported as 43.7 (10.5, 84.7) %; the “Cmax, median relative difference (range) after initiation of combination therapy” value (from here on “Cmax, median relative difference (range)”) came out at 3.9%; the “Ka, population estimate” value was 2.01 h⁻¹. In addition, in series [3] (listed as Sirolimus), the “Cmax, median relative difference (range)” value was 3.9 (1.3, 11.0) %. For the same compound, in series [4], the “AUC, median relative difference (range)” value was −47.7 (−75.4, 1394.8) % and the “Cmax, median relative difference (range)” value is listed as −29.8%. For the same compound, the “Cmax, median relative difference (range)” value in series [4] (listed as Sirolimus) is −29.8 (−77.4, 28.8) %.

On to `CNC(=O)c1cc(Oc2ccc(NC(=O)Nc3ccc(Cl)c(C(F)(F)F)c3)cc2)ccn1` [sorafenib, Sorafenib], for which the “Effect of inhibitors of CYP3A4 on pharmacokinetics” value in the series with CYP3A4 is listed as “only modestly affected”. In the series “clinical”, the Vd/F came to 807 L. Moreover, in series [3], the “AUC, median relative difference (range)” value was 6.1 (−17.3, 22.0) %; the “Cmax, median relative difference (range)” value is on record as −40.7%; the “Ka, population estimate” value was 1.07 h⁻¹. Moreover, the “Cmax, median relative difference (range)” value in series [3] (listed as Sorafenib) is listed as −40.7 (−87.0, 351.2) %.

As to `CCN(CC)CCNC(=O)c1c(C)[nH]c(/C=C2\C(=O)Nc3ccc(F)cc32)c1C` [sunitinib, Sunitinib], the “Effect of inhibitors of CYP3A4 on pharmacokinetics” value with CYP3A4 was “only modestly affected”. Besides, in series [4], the “AUC, median relative difference (range)” value is 54.3 (−34.3, 232.8) % and the “Cmax, median relative difference (range)” value amounted to 19.6%. Besides, the “Cmax, median relative difference (range)” value in series [4] (listed as Sunitinib) is 19.6 (−23.5, 45.4) %.
